Test results as given in patent US6667387B1, “HCV core peptides” (priority 1992, dated 2003).
Ends that are not written are not given here. * marks the point of attachment. Biotin = O=C1N[C@H]2[C@H](CS[C@H]2CCCCC(=O)*)N1

Tests used:
[1] = test system: antibodies in sera from HCV-seropositive donors; experiment: ELISA with HCV antibody-positive sera (biotinylated peptides on streptavidin- or avidin-coated plates, unbiotinylated peptides coated directly); type: binding, human; details: for PEPTIDE ELISA (O.D.): Table 12, biotinylated 20-mers
Summary of the method: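 Read-out is OD at 450 nm after HRP goat anti-human Ig and TMB development, following 1 h at 37° C. with seropositive or negative sera diluted 1:100 (or 20-fold). Antigen was either unbiotinylated peptide adsorbed on plastic (pH 9.6 carbonate, 2–5 or 3 μg/ml) or biotinylated peptide at 1 μg/ml captured on streptavidin-coated wells, with casein blocking.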

[2] = ELISA with seronegative / negative control sera (specificity); type: binding, human
Summary of the method: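 Specificity readout is OD at 450 nm (HRP goat anti-human Ig, TMB/H2O2, sulfuric acid stop), with ≥0.250 counted positive. Seronegative donor sera (typically 1:100, 1 h, 37° C) were applied to casein-blocked wells coated with peptide directly or via streptavidin capture of biotinylated peptide.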

[3] = Table 8, serum 8243 (HCV), Avidin
[4] = Table 8, serum 8247 (HCV), Avidin
[5] = Table 8, serum 8248 (HCV), Avidin
[6] = Table 8, serum 8269 (HCV), Avidin
[7] = Table 8, serum 8273 (HCV), Avidin
[8] = Table 8, serum 8278 (HCV), Avidin
[9] = Table 8, serum 8285 (HCV), Avidin
[10] = Table 8, serum 8290 (HCV), Avidin
[11] = Table 8, serum 8291 (HCV), Avidin
[12] = Table 8, serum 1782 (blood donor), Avidin
[13] = Table 8, serum 1784 (blood donor), Avidin
[14] = Table 8, serum 1785 (blood donor), Avidin
[15] = Table 8, serum 1794 (blood donor), Avidin

With ETWKKPDYEPPVVHGCPLPP the “optical density (450 nm)” value ([1]; Table 4G, serum 1, 20-fold dilution) was 2.691, the “optical density (450 nm)” value ([1]; Table 4G, serum 33, 20-fold dilution) was 1.813 and the “optical density (450 nm)” value ([1]; Table 4G, serum 39, 20-fold dilution) was 0.213. For the same substance, the “optical density (450 nm)” value ([1]; Table 4G, serum 47, 20-fold dilution) was 2.611, the “optical density (450 nm)” value ([1]; Table 4G, serum 79, 20-fold dilution) was 2.105 and the “optical density (450 nm)” value ([1]; Table 4G, serum 83, 20-fold dilution) was 1.232. The “optical density (450 nm)” value ([1]; Table 4G, serum 88, 20-fold dilution) was 1.858, the “optical density (450 nm)” value ([1]; Table 4G, serum 89, 20-fold dilution) was 2.309 and the “optical density (450 nm)” value ([1]; Table 4G, serum 91, 20-fold dilution) was 1.132. The “optical density (450 nm)” value ([1]; Table 4G, serum 99, 20-fold dilution) was 1.526, the “optical density (450 nm)” value ([1]; Table 4G, serum 104, 20-fold dilution) was 1.998 and the “optical density (450 nm)” value ([1]; Table 4G, serum 105, 20-fold dilution) was 2.053. The “optical density (450 nm)” value ([1]; Table 4G, serum 110, 20-fold dilution) was 2.065, the “optical density (450 nm)” value ([1]; Table 4G, serum 111, 20-fold dilution) was 1.542 and the “optical density (450 nm)” value ([1]; Table 4G, serum 112, 20-fold dilution) was 1.408. The “optical density (450 nm)” value ([1]; Table 4G, serum 116, 20-fold dilution) was 1.978, the “optical density (450 nm)” value ([1]; Table 4G, serum 120, 20-fold dilution) was 2.031 and the “optical density (450 nm)” value ([1]; Table 5, sample 8242 (positive), peptide concentration 0.01 micrograms per milliliter, listed as HCV peptide XVIII) was 1.185. For the same substance, the “optical density (450 nm)” value ([1]; Table 5, sample 8242 (positive), peptide concentration 0.03 micrograms per milliliter, listed as HCV peptide XVIII) was 1.188, the “optical density (450 nm)” value ([1]; Table 5, sample 8242 (positive), peptide concentration 0.1 micrograms per milliliter, listed as HCV peptide XVIII) was 0.946 and the “optical density (450 nm)” value ([1]; Table 5, sample 8242 (positive), peptide concentration 0.3 micrograms per milliliter, listed as HCV peptide XVIII) was 0.873. For the same substance, the “optical density (450 nm)” value ([1]; Table 5, sample 8242 (positive), peptide concentration 1.0 micrograms per milliliter, listed as HCV peptide XVIII) was 0.839, the “optical density (450 nm)” value ([1]; Table 5, sample 8242 (positive), peptide concentration 3.0 micrograms per milliliter, listed as HCV peptide XVIII) was 0.749 and the “optical density (450 nm)” value ([1]; Table 5, sample 8243 (positive), peptide concentration 0.01 micrograms per milliliter, listed as HCV peptide XVIII) was 0.462. The “optical density (450 nm)” value ([1]; Table 5, sample 8243 (positive), peptide concentration 0.03 micrograms per milliliter, listed as HCV peptide XVIII) was 0.611, the “optical density (450 nm)” value ([1]; Table 5, sample 8243 (positive), peptide concentration 0.1 micrograms per milliliter, listed as HCV peptide XVIII) was 0.661 and the “optical density (450 nm)” value ([1]; Table 5, sample 8243 (positive), peptide concentration 0.3 micrograms per milliliter, listed as HCV peptide XVIII) was 0.629. For the same substance, the “optical density (450 nm)” value ([1]; Table 5, sample 8243 (positive), peptide concentration 1.0 micrograms per milliliter, listed as HCV peptide XVIII) was 0.627, the “optical density (450 nm)” value ([1]; Table 5, sample 8243 (positive), peptide concentration 3.0 micrograms per milliliter, listed as HCV peptide XVIII) was 0.671 and the “optical density (450 nm)” value ([1]; Table 5, sample 8318 (positive), peptide concentration 0.01 micrograms per milliliter, listed as HCV peptide XVIII) was 1.711. For the same substance, the “optical density (450 nm)” value ([1]; Table 5, sample 8318 (positive), peptide concentration 0.03 micrograms per milliliter, listed as HCV peptide XVIII) was 2.308, the “optical density (450 nm)” value ([1]; Table 5, sample 8318 (positive), peptide concentration 0.1 micrograms per milliliter, listed as HCV peptide XVIII) was 2.409 and the “optical density (450 nm)” value ([1]; Table 5, sample 8318 (positive), peptide concentration 0.3 micrograms per milliliter, listed as HCV peptide XVIII) was 2.392. The “optical density (450 nm)” value ([1]; Table 5, sample 8318 (positive), peptide concentration 1.0 micrograms per milliliter, listed as HCV peptide XVIII) was 2.396, the “optical density (450 nm)” value ([1]; Table 5, sample 8318 (positive), peptide concentration 3.0 micrograms per milliliter, listed as HCV peptide XVIII) was 2.391 and the “optical density (450 nm)” value ([1]; Table 5, sample 8326 (positive), peptide concentration 0.01 micrograms per milliliter, listed as HCV peptide XVIII) was 1.848. For the same substance, the “optical density (450 nm)” value ([1]; Table 5, sample 8326 (positive), peptide concentration 0.03 micrograms per milliliter, listed as HCV peptide XVIII) was 2.219, the “optical density (450 nm)” value ([1]; Table 5, sample 8326 (positive), peptide concentration 0.1 micrograms per milliliter, listed as HCV peptide XVIII) was 2.331 and the “optical density (450 nm)” value ([1]; Table 5, sample 8326 (positive), peptide concentration 0.3 micrograms per milliliter, listed as HCV peptide XVIII) was 2.331. For the same substance, the “optical density (450 nm)” value ([1]; Table 5, sample 8326 (positive), peptide concentration 1.0 micrograms per milliliter, listed as HCV peptide XVIII) was 2.331, the “optical density (450 nm)” value ([1]; Table 5, sample 8326 (positive), peptide concentration 3.0 micrograms per milliliter, listed as HCV peptide XVIII) was 2.315 and the “optical density (450 nm)” value [1, 3] was 0.118. The “optical density (450 nm)” value [1, 4] was 0.046, the “optical density (450 nm)” value [1, 5] was 0.905 and the “optical density (450 nm)” value [1, 6] was 1.513. The “optical density (450 nm)” value [1, 7] was 0.052, the “optical density (450 nm)” value [1, 8] was 0.052 and the “optical density (450 nm)” value [1, 9] was 0.146. The “optical density (450 nm)” value [1, 10] was 2.323, the “optical density (450 nm)” value [1, 11] was 0.049 and the “PEPTIDE ELISA (O.D.)” value ([1]; serum 0843) was 0.127. The “PEPTIDE ELISA (O.D.)” value ([1]; serum 8240) was 1.511, the “PEPTIDE ELISA (O.D.)” value ([1]; serum 8241) was 0.273 and the “PEPTIDE ELISA (O.D.)” value ([1]; serum 8242) was 2.453. For the same substance, the “PEPTIDE ELISA (O.D.)” value ([1]; serum 8332) was 2.290, the “PEPTIDE ELISA (O.D.)” value ([1]; serum 8339) was 2.757 and the “PEPTIDE ELISA (O.D.)” value ([1]; serum 8350) was 0.182. The “PEPTIDE ELISA (O.D.)” value ([1]; serum 8377) was 1.378, the “PEPTIDE ELISA (O.D.)” value ([1]; serum 8378) was 2.337 and the “PEPTIDE ELISA (O.D.)” value ([1]; serum 8388) was 2.358. For the same substance, the “optical density (450 nm)” value ([2]; Table 4G, negative serum) was 0.001, the “optical density (450 nm)” value ([2]; Table 5, sample 1747 (negative), peptide concentration 0.01 micrograms per milliliter, listed as HCV peptide XVIII) was 0.042 and the “optical density (450 nm)” value ([2]; Table 5, sample 1747 (negative), peptide concentration 0.03 micrograms per milliliter, listed as HCV peptide XVIII) was 0.058. The “optical density (450 nm)” value ([2]; Table 5, sample 1747 (negative), peptide concentration 0.1 micrograms per milliliter, listed as HCV peptide XVIII) was 0.044, the “optical density (450 nm)” value ([2]; Table 5, sample 1747 (negative), peptide concentration 0.3 micrograms per milliliter, listed as HCV peptide XVIII) was 0.061 and the “optical density (450 nm)” value ([2]; Table 5, sample 1747 (negative), peptide concentration 1.0 micrograms per milliliter, listed as HCV peptide XVIII) was 0.042. For the same substance, the “optical density (450 nm)” value ([2]; Table 5, sample 1747 (negative), peptide concentration 3.0 micrograms per milliliter, listed as HCV peptide XVIII) was 0.047, the “optical density (450 nm)” value ([2]; Table 5, sample 1781 (negative), peptide concentration 0.01 micrograms per milliliter, listed as HCV peptide XVIII) was 0.045 and the “optical density (450 nm)” value ([2]; Table 5, sample 1781 (negative), peptide concentration 0.03 micrograms per milliliter) was 0.051. The “optical density (450 nm)” value ([2]; Table 5, sample 1781 (negative), peptide concentration 0.1 micrograms per milliliter, listed as HCV peptide XVIII) was 0.048, the “optical density (450 nm)” value ([2]; Table 5, sample 1781 (negative), peptide concentration 0.3 micrograms per milliliter, listed as HCV peptide XVIII) was 0.048 and the “optical density (450 nm)” value ([2]; Table 5, sample 1781 (negative), peptide concentration 1.0 micrograms per milliliter, listed as HCV peptide XVIII) was 0.048. The “optical density (450 nm)” value ([2]; Table 5, sample 1781 (negative), peptide concentration 3.0 micrograms per milliliter, listed as HCV peptide XVIII) was 0.053, the “optical density (450 nm)” value [2, 12] was 0.053 and the “optical density (450 nm)” value [2, 13] was 0.047. The “optical density (450 nm)” value [2, 14] was 0.047 and the “optical density (450 nm)” value [2, 15] was 0.104.
For “Bio-Gly-Gly-Tyr-Asn-Lys-Arg-Lys-Arg-Ile-His-Ile-Gly-Pro-Gly-Arg-Ala-Phe-Tyr-Thr-Thr-Lys-Asn-Ile-Ile-Gly-NH2 (Biotin-GGYNKRKRIHIGPGRAFYTTKNIIG-NH2) [V3-mn Bio]”, the “optical density (450 nm)” value [1, 3] was 0.114, the “optical density (450 nm)” value [1, 4] was 0.052 and the “optical density (450 nm)” value [1, 5] was 0.048. For the same substance, the “optical density (450 nm)” value [1, 6] was 0.056, the “optical density (450 nm)” value [1, 7] was 0.056 and the “optical density (450 nm)” value [1, 8] was 0.053. The “optical density (450 nm)” value [1, 9] was 0.143, the “optical density (450 nm)” value [1, 10] was 0.050 and the “optical density (450 nm)” value [1, 11] was 0.053. For the same substance, the “optical density (450 nm)” value ([2]; Table 2, negative control) was 0.069, the “optical density (450 nm)” value ([2]; Table 3, Control, peptide bound to avidin) was 0.063 and the “optical density (450 nm)” value ([2]; Table 3, Control, peptide bound to streptavidin) was 0.050. For the same substance, the “optical density (450 nm)” value [2, 12] was 0.059, the “optical density (450 nm)” value [2, 13] was 0.046 and the “optical density (450 nm)” value [2, 14] was 0.048. For the same substance, the “optical density (450 nm)” value [2, 15] was 0.091.
